# Test results reported in patent US8906909B2 (Curis, Inc., priority 2009, dated 2014).
# How the values were obtained:
# [1] = test system: HDACs (HeLa cell nuclear extracts); experiment: HDAC enzymatic activity, Biomol Color de Lys system; type: biochemical
# Outline: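 IC50 from sigmoidal dose-response fits of fluorescence (Ex 350–380, Em 440–460 nm). Compounds in DMSO dilution series incubated 1 h at 25 °C with HeLa nuclear extract HDACs and colorimetric substrate, pH 8.0 Tris/Cl buffer with NaCl, KCl, MgCl2, before developer termination.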
smiles,measurement,setting,value
"CN(C)c1cccc(-c2nc(N3CCOCC3)c3sc(CN(C)c4ncc(C(=O)NO)cn4)cc3n2)c1 [Compound 108, 2-(((2-(3-(dimethylamino)phenyl)-4-morpholinothieno[3,2-d]pyrimidin-6-yl)methyl)(methyl)amino)-N-hydroxypyrimidine-5-carboxamide]",melting point,,172 to 175 °C
same,IC50,[1],< 100 nM
"CC(=O)Nc1ccc(-c2nc(N3CCOCC3)c3sc(CN(C)c4ncc(C(=O)NO)cn4)cc3n2)cn1 [Compound 112, 2-(((2-(6-acetamidopyridin-3-yl)-4-morpholinothieno[3,2-d]pyrimidin-6-yl)methyl)(methyl)amino)-N-hydroxypyrimidine-5-carboxamide]",melting point,,197 to 201 °C
same,IC50,[1],< 100 nM
"CN(C)c1ccc(-c2nc(N3CCOCC3)c3sc(CN(C)c4ncc(C(=O)NO)cn4)cc3n2)cn1 [Compound 114, 2-(((2-(6-(dimethylamino)pyridin-3-yl)-4-morpholinothieno[3,2-d]pyrimidin-6-yl)methyl)(methyl)amino)-N-hydroxypyrimidine-5-carboxamide]",melting point,,190 to 195 °C
same,IC50,[1],< 100 nM
"CN(Cc1cc2nc(-c3cncnc3)nc(N3CCOCC3)c2s1)c1ncc(C(=O)NO)cn1 [Compound 119, N-hydroxy-2-(methyl((4-morpholino-2-(pyrimidin-5-yl)thieno[3,2-d]pyrimidin-6-yl)methyl)amino)pyrimidine-5-carboxamide]",melting point,,159 to 160 °C
same,IC50,[1],< 100 nM
"CCc1ncc(-c2nc(N3CCOCC3)c3sc(CN(C)c4ncc(C(=O)NO)cn4)cc3n2)cn1 [Compound 121, 2-(((2-(2-ethylpyrimidin-5-yl)-4-morpholinothieno[3,2-d]pyrimidin-6-yl)methyl)(methyl)amino)-N-hydroxypyrimidine-5-carboxamide]",melting point,,153 to 156 °C
same,IC50,[1],< 100 nM
"CN(Cc1cc2nc(-c3cnc(CN)nc3)nc(N3CCOCC3)c2s1)c1ncc(C(=O)NO)cn1 [Compound 124, 2-(((2-(2-(aminomethyl)pyrimidin-5-yl)-4-morpholinothieno[3,2-d]pyrimidin-6-yl)methyl)(methyl)amino)-N-hydroxypyrimidine-5-carboxamide]",melting point,,> 300 °C
same,IC50,[1],< 100 nM
"CN(Cc1cc2nc(-c3ccccc3)nc(N3CCOCC3)c2s1)c1ncc(C(=O)NO)cn1 [Compound 129, N-hydroxy-2-(methyl((4-morpholino-2-phenylthieno[3,2-d]pyrimidin-6-yl)methyl)amino)pyrimidine-5-carboxamide]",melting point,,199 to 200 °C
same,IC50,[1],< 100 nM
"COc1cccc(-c2nc(N3CCOCC3)c3sc(CN(C)c4ncc(C(=O)NO)cn4)cc3n2)c1 [Compound 130, N-hydroxy-2-(((2-(3-methoxyphenyl)-4-morpholinothieno[3,2-d]pyrimidin-6-yl)methyl)(methyl)amino)pyrimidine-5-carboxamide]",melting point,,179 to 181 °C
same,IC50,[1],< 100 nM
"CN(Cc1cc2nc(-c3ccc(O)cc3)nc(N3CCOCC3)c2s1)c1ncc(C(=O)NO)cn1 [Compound 133, N-hydroxy-2-(((2-(4-hydroxyphenyl)-4-morpholinothieno[3,2-d]pyrimidin-6-yl)methyl)(methyl)amino)pyrimidine-5-carboxamide]",melting point,,185 to 195 °C
same,IC50,[1],< 100 nM
"CN(Cc1cc2nc(-c3cccc(N)c3)nc(N3CCOCC3)c2s1)c1ncc(C(=O)NO)cn1 [Compound 134, 2-(((2-(3-aminophenyl)-4-morpholinothieno[3,2-d]pyrimidin-6-yl)methyl)(methyl)amino)-N-hydroxypyrimidine-5-carboxamide]",melting point,,179 to 182 °C
same,IC50,[1],< 100 nM
"CN(Cc1cc2nc(-c3ccc(CN)cc3)nc(N3CCOCC3)c2s1)c1ncc(C(=O)NO)cn1 [Compound 135, 2-(((2-(4-(aminomethyl)phenyl)-4-morpholinothieno[3,2-d]pyrimidin-6-yl)methyl)(methyl)amino)-N-hydroxypyrimidine-5-carboxamide]",melting point,,184 to 186 °C
same,IC50,[1],< 100 nM
"CN(Cc1cc2nc(-c3cccc(CN)c3)nc(N3CCOCC3)c2s1)c1ncc(C(=O)NO)cn1 [Compound 137, 2-(((2-(3-(aminomethyl)phenyl)-4-morpholinothieno[3,2-d]pyrimidin-6-yl)methyl)(methyl)amino)-N-hydroxypyrimidine-5-carboxamide]",melting point,,173 to 176 °C
same,IC50,[1],< 100 nM
"COCc1cccc(-c2nc(N3CCOCC3)c3sc(CN(C)c4ncc(C(=O)NO)cn4)cc3n2)c1 [Compound 139, N-hydroxy-2-(((2-(3-(methoxymethyl)phenyl)-4-morpholinothieno[3,2-d]pyrimidin-6-yl)methyl)(methyl)amino)pyrimidine-5-carboxamide]",melting point,,178 to 181 °C
same,IC50,[1],< 100 nM
"CN(Cc1cc2nc(-c3ccc(CO)cc3)nc(N3CCOCC3)c2s1)c1ncc(C(=O)NO)cn1 [Compound 140, N-hydroxy-2-(((2-(4-(hydroxymethyl)phenyl)-4-morpholinothieno[3,2-d]pyrimidin-6-yl)methyl)(methyl)amino)pyrimidine-5-carboxamide]",melting point,,218 to 223 °C
same,IC50,[1],< 100 nM
"CN(Cc1cc2nc(-c3ccccc3CO)nc(N3CCOCC3)c2s1)c1ncc(C(=O)NO)cn1 [Compound 141, N-hydroxy-2-(((2-(2-(hydroxymethyl)phenyl)-4-morpholinothieno[3,2-d]pyrimidin-6-yl)methyl)(methyl)amino)pyrimidine-5-carboxamide]",melting point,,173 to 176 °C
same,IC50,[1],< 100 nM
"CN(Cc1cc2nc(-c3ccc(C(N)=O)cc3)nc(N3CCOCC3)c2s1)c1ncc(C(=O)NO)cn1 [Compound 143, 2-(((2-(4-carbamoylphenyl)-4-morpholinothieno[3,2-d]pyrimidin-6-yl)methyl)(methyl)amino)-N-hydroxypyrimidine-5-carboxamide]",melting point,,200 to 202 °C
same,IC50,[1],< 100 nM
"CNC(=O)c1cccc(-c2nc(N3CCOCC3)c3sc(CN(C)c4ncc(C(=O)NO)cn4)cc3n2)c1 [Compound 144, N-hydroxy-2-(methyl((2-(3-(methylcarbamoyl)phenyl)-4-morpholinothieno[3,2-d]pyrimidin-6-yl)methyl)amino)pyrimidine-5-carboxamide]",melting point,,215 to 217 °C
same,IC50,[1],< 100 nM
"CN(Cc1cc2nc(-c3ccc(C#N)cc3)nc(N3CCOCC3)c2s1)c1ncc(C(=O)NO)cn1 [Compound 146, 2-(((2-(4-cyanophenyl)-4-morpholinothieno[3,2-d]pyrimidin-6-yl)methyl)(methyl)amino)-N-hydroxypyrimidine-5-carboxamide]",melting point,,214 to 216 °C
same,IC50,[1],< 100 nM
"CN(Cc1cc2nc(-c3ccc(Cl)cc3)nc(N3CCOCC3)c2s1)c1ncc(C(=O)NO)cn1 [Compound 147, 2-(((2-(4-chlorophenyl)-4-morpholinothieno[3,2-d]pyrimidin-6-yl)methyl)(methyl)amino)-N-hydroxypyrimidine-5-carboxamide]",melting point,,153 °C
same,IC50,[1],< 100 nM
"CC(C)c1ccc(-c2nc(N3CCOCC3)c3sc(CN(C)c4ncc(C(=O)NO)cn4)cc3n2)cc1 [Compound 148, N-hydroxy-2-(((2-(4-isopropylphenyl)-4-morpholinothieno[3,2-d]pyrimidin-6-yl)methyl)(methyl)amino)pyrimidine-5-carboxamide]",melting point,,155 °C (dec.)
same,IC50,[1],< 100 nM
"CN(Cc1cc2nc(-c3ccc(S(C)(=O)=O)cc3)nc(N3CCOCC3)c2s1)c1ncc(C(=O)NO)cn1 [Compound 149, N-hydroxy-2-(methyl((2-(4-(methylsulfonyl)phenyl)-4-morpholinothieno[3,2-d]pyrimidin-6-yl)methyl)amino)pyrimidine-5-carboxamide]",melting point,,206 to 208 °C
same,IC50,[1],< 100 nM
"CNc1ccc(-c2nc(N3CCOCC3)c3sc(CN(C)c4ncc(C(=O)NO)cn4)cc3n2)cc1 [Compound 151, N-hydroxy-2-(methyl((2-(4-(methylamino)phenyl)-4-morpholinothieno[3,2-d]pyrimidin-6-yl)methyl)amino)pyrimidine-5-carboxamide]",melting point,,218 to 220 °C
same,IC50,[1],< 100 nM
"CN(C)c1ccc(-c2nc(N3CCOCC3)c3sc(CN(C)c4ncc(C(=O)NO)cn4)cc3n2)cc1 [Compound 152, 2-(((2-(4-(dimethylamino)phenyl)-4-morpholinothieno[3,2-d]pyrimidin-6-yl)methyl)(methyl)amino)-N-hydroxypyrimidine-5-carboxamide]",melting point,,208 to 210 °C
same,IC50,[1],< 100 nM
"CCNc1ccc(-c2nc(N3CCOCC3)c3sc(CN(C)c4ncc(C(=O)NO)cn4)cc3n2)cc1 [Compound 153, 2-(((2-(4-(ethylamino)phenyl)-4-morpholinothieno[3,2-d]pyrimidin-6-yl)methyl)(methyl)amino)-N-hydroxypyrimidine-5-carboxamide]",melting point,,185 to 187 °C
same,IC50,[1],< 100 nM
"CCN(CC)c1ccc(-c2nc(N3CCOCC3)c3sc(CN(C)c4ncc(C(=O)NO)cn4)cc3n2)cc1 [Compound 154, 2-(((2-(4-(Diethylamino)phenyl)-4-morpholinothieno[3,2-d]pyrimidin-6-yl)methyl)(methyl)amino)-N-hydroxypyrimidine-5-carboxamide]",melting point,,192 to 196 °C
same,IC50,[1],< 100 nM
"CN(Cc1cc2nc(-c3ccc(N4CCCC4)cc3)nc(N3CCOCC3)c2s1)c1ncc(C(=O)NO)cn1 [Compound 155, N-hydroxy-2-(methyl((4-morpholino-2-(4-(pyrrolidin-1-yl)phenyl)thieno[3,2-d]pyrimidin-6-yl)methyl)amino)pyrimidine-5-carboxamide]",melting point,,187 to 192 °C
same,IC50,[1],< 100 nM
"CN(Cc1cc2nc(-c3ccc(N)c(N)c3)nc(N3CCOCC3)c2s1)c1ncc(C(=O)NO)cn1 [Compound 156, 2-(((2-(3,4-diaminophenyl)-4-morpholinothieno[3,2-d]pyrimidin-6-yl)methyl)(methyl)amino)-N-hydroxypyrimidine-5-carboxamide]",melting point,,222 to 225 °C
same,IC50,[1],< 100 nM
